# Where a name gives a salt, the structure may show the parent alone.
# Target: T1, full length SGK1 (Homo sapiens, UniProt O00141)
# T1 construct: 125 μM full length SGK1 (Life Technologies Part #PR7358A); purchased Life Technologies PR7358A
# T1 sequence (O00141 1-431): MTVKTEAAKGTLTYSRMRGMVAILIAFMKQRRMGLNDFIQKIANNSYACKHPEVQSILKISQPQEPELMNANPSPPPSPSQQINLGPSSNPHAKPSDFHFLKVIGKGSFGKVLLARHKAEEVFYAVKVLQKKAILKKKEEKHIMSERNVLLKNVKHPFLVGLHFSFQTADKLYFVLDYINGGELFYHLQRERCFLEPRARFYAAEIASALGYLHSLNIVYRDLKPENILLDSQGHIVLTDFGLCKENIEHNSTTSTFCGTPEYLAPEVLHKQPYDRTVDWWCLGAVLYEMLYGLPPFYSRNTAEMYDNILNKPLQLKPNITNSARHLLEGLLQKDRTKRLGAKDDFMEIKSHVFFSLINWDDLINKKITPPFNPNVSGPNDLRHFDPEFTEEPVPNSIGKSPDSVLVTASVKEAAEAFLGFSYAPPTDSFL
# Test: SGK1 inhibition Assay A (Caliper LabChip electrophoretic separation of fluorescent peptide substrate and phosphorylated product)
# Format: biochemical
# Settings: Assay A; 20 μM ATP, 40 min incubation; read-out: SGK1 IC50
row,Structure (SMILES),IC50
1,"Cc1ccc(C(=O)N[C@@H]2CCN(c3cc(-c4ccc(S(C)(=O)=O)cc4)n4ncnc(N)c34)C2)s1 [Example 136, (R)—N-(1-(4-amino-7-(4-(methylsulfonyl)phenyl)pyrrolo[2,1-f][1,2,4]triazin-5-yl)pyrrolidin-3-yl)-5-methylthiophene-2-carboxamide, TFA]",230 nM
2,"CC(=O)c1ccc(-c2cc(N3CCC[C@@H](NC(=O)c4cccc(N5CCN(C)CC5)n4)C3)c3c(N)ncnn23)cc1 [Example 801, (R)-N-(1-(7-(4-acetylphenyl)-4-aminopyrrolo[2,1-f][1,2,4]triazin-5-yl)piperidin-3-yl)-6-(4-methylpiperazin-1-yl)picolinamide]",26 nM
3,"N#Cc1cccc(-c2ccc(C(=O)N[C@@H]3CCCN(c4cc(-c5ccnc(C(F)F)c5)n5ncnc(N)c45)C3)s2)c1 [Example 544, (R)-N-(1-(4-amino-7-(2-(difluoromethyl)pyridin-4-yl)pyrrolo[2,1-f][1,2,4]triazin-5-yl)piperidin-3-yl)-5-(3-cyanophenyl)thiophene-2-carboxamide]",5 nM
4,"CC(=O)N1CCC(Oc2cc(C(F)F)sc2C(=O)N[C@@H]2CCCN(c3cc(-c4cnc(C#N)c(C)c4)n4ncnc(N)c34)C2)CC1 [Example 415, (R)-3-((1-acetylpiperidin-4-yl)oxy)-N-(1-(4-amino-7-(6-cyano-5-methylpyridin-3-yl)pyrrolo[2,1-f][1,2,4]triazin-5-yl)piperidin-3-yl)-5-(difluoromethyl)thiophene-2-carboxamide]",8 nM
5,"CC(=O)N1CC=C(c2cc(N3CCC[C@@H](NC(=O)c4cccc(OC5CN6CCC5CC6)n4)C3)c3c(N)ncnn23)C1 (stereo partly drawn) [Example 734, N-((R)-1-(7-(1-acetyl-2,5-dihydro-1H-pyrrol-3-yl)-4-aminopyrrolo[2,1-f][1,2,4]triazin-5-yl)piperidin-3-yl)-6-(quinuclidin-3-yloxy)picolinamide]",10 nM
6,"CC(C)Cn1cc(-c2cc(N3CCC[C@@H](NC(=O)c4cc5ccccc5[nH]4)C3)c3c(N)ncnn23)ccc1=O [Example 507, (R)-N-(1-(4-amino-7-(1-isobutyl-6-ox0-1,6-dihydropyridin-3-yl)pyrrolo[2,1-f][1,2,4]triazin-5-yl)piperidin-3-yl)-1H-indole-2-carboxamide]",82 nM
7,"CN1CCN(c2cccc(C(=O)N[C@@H]3CCCN(c4cc(-c5cncnc5)n5ncnc(N)c45)C3)n2)CC1 [Example 787, (R)-N-(1-(4-amino-7-(pyrimidin-5-yl)pyrrolo[2,1-f][1,2,4]triazin-5-yl)piperidin-3-yl)-6-(4-methylpiperazin-1-yl)picolinamide]",77 nM
8,"Nc1ncnn2c(-c3ccn[nH]3)cc(N3CCC[C@@H](NC(=O)c4ccc(Cl)s4)C3)c12 [Example 211, (R)-N-(1-(4-amino-7-(1H-pyrazol-5-yl)pyrrolo[2,1-f][1,2,4]triazin-5-yl)piperidin-3-yl)-5-chlorothiophene-2-carboxamide]",3 nM
9,"Cc1cc(C(=O)N[C@@H]2CCCN(c3cc(-c4ccc(S(C)(=O)=O)cc4)n4ncnc(N)c34)C2)sn1 [Example 73, (R)-N-(1-(4-amino-7-(4-(methylsulfonyl)phenyl)pyrrolo[2,1-f][1,2,4]triazin-5-yl)piperidin-3-yl)-3-methylisothiazole-5-carboxamide]",8 nM
10,CC(=O)N1CC=C(c2cc(N3CCC[C@@H](NC(=O)c4ccc(N(C)C)cc4)C3)c3c(N)ncnn23)C1 [Example 445],5 nM
11,"CC(=O)N1CC=C(c2cc(N3CCC[C@@H](NC(=O)c4cccc(N(C)C)n4)C3)c3c(N)ncnn23)C1 [Example 725, (R)-N-(1-(7-(1-acetyl-2,5-dihydro-1H-pyrrol-3-yl)-4-aminopyrrolo[2,1-f][1,2,4]triazin-5-yl)piperidin-3-yl)-6-(dimethylamino) picolinamide]",26 nM
12,"CN(C)CCOc1cc(Cl)sc1C(=O)N[C@@H]1CCCN(c2cc(-c3ccc(C#N)nc3)n3ncnc(N)c23)C1 [Example 278, (R)-N-(1-(4-amino-7-(6-cyanopyridin-3-yl)pyrrolo[2,1-f][1,2,4]triazin-5-yl)piperidin-3-yl)-5-chloro-3-(2-(dimethylamino)ethoxy) thiophene-2-carboxamide]",1 nM
13,"CN(C)CCOc1cc(Cl)sc1C(=O)N[C@@H]1CCCN(c2cc(-c3ccnc(F)c3)n3ncnc(N)c23)C1 [Example 149, (R)-N-(1-(4-amino-7-(2-fluoropyridin-4-yl)pyrrolo[2,1-f][1,2,4]triazin-5-yl)piperidin-3-yl)-5-chloro-3-(2-(dimethylamino)ethoxy) thiophene-2-carboxamide, TFA]",1 nM
14,"NC(=O)c1ccc(-c2cc(N3CCC[C@@H](NC(=O)c4sc(C5CC5)cc4OC4CCNCC4)C3)c3c(N)ncnn23)cc1F [Example 380, (R)-N-(1-(4-amino-7-(4-carbamoyl-3-fluorophenyl)pyrrolo[2,1-f][1,2,4]triazin-5-yl)piperidin-3-yl)-5-cyclopropyl-3-(piperidin-4-yloxy)thiophene-2-carboxamide]",1 nM
15,"CC(=O)NCCOc1cc(C(F)F)sc1C(=O)N[C@@H]1CCCN(c2cc(-c3ccc(=O)n(CC(F)F)c3)n3ncnc(N)c23)C1 [Example 427, (R)-3-(2-acetamidoethoxy)-N-(1-(4-amino-7-(1-(2,2-difluoroethyl)-6-oxo-1,6-dihydropyridin-3-yl)pyrrolo[2,1-f][1,2,4]triazin-5-yl)piperidin-3-yl)-5-(difluoromethyl)thiophene-2-carboxamide]",12 nM
16,"Nc1ncnn2c(-c3ccc(-n4cnnn4)cc3)cc(N3CCC[C@@H](NC(=O)c4ccc(Cl)s4)C3)c12 [Example 249, (R)-N-(1-(7-(4-(1H-tetrazol-1-yl)phenyl)-4-aminopyrrolo[2,1-f][1,2,4]triazin-5-yl)piperidin-3-yl)-5-chlorothiophene-2-carboxamide, TFA]",1 nM
17,"CS(=O)(=O)c1ccc(-c2cc(N3CCC[C@@H](NC(=O)c4cccc(Cl)c4)C3)c3c(N)ncnn23)cc1 [Example 21, (R)-N-(1-(4-amino-7-(4-(methylsulfonyl)phenyl)pyrrolo[2,1-f][1,2,4]triazin-5-yl)piperidin-3-yl)-3-chlorobenzamide]",13 nM
18,"Nc1ncnn2c(-c3cncnc3)cc(N3CCC[C@@H](NC(=O)c4cc5ccccc5[nH]4)C3)c12 [Example 508, (R)-N-(1-(4-amino-7-(pyrimidin-5-yl)pyrrolo[2,1-f][1,2,4]triazin-5-yl)piperidin-3-yl)-1H-indole-2-carboxamide]",195 nM

# Further lines, results first:
row,IC50,Structure (SMILES)
1,6 nM,"CC(=O)N1CC=C(c2cc(N3CCC[C@@H](NC(=O)c4sc(-c5ccnc(F)c5)cc4OCCN(C)C)C3)c3c(N)ncnn23)C1 [Example 556, (R)-N-(1-(7-(1-acetyl-2,5-dihydro-1H-pyrrol-3-yl)-4-aminopyrrolo[2,1-f][1,2,4]triazin-5-yl)piperidin-3-yl)-3-(2-(dimethylamino)ethoxy)-5-(2-fluoropyridin-4-yl)thiophene-2-carboxamide]"
2,9 nM,"CN1CCC(Oc2cc(Cl)sc2C(=O)N[C@@H]2CCCN(c3cc(-c4cncnc4)n4ncnc(N)c34)C2)CC1 [Example 585, (R)-N-(1-(4-amino-7-(pyrimidin-5-yl)pyrrolo[2,1-f][1,2,4]triazin-5-yl)piperidin-3-yl)-5-chloro-3-((1-methylpiperidin-4-yl)oxy)thiophene-2-carboxamide]"
3,111 nM,"CC(=O)N1CC=C(c2cc(N3CCC[C@@H](NC(=O)c4cccnc4)C3)c3c(N)ncnn23)C1 [Example 729, (R)-N-(1-(7-(1-acetyl-2,5-dihydro-1H-pyrrol-3-yl)-4-aminopyrrolo[2,1-f][1,2,4]triazin-5~ yl)piperidin-3-yl)nicotinamide]"
4,304 nM,"CC(=O)N1CC=C(c2cc(N3CCC[C@@H](NC(=O)c4sc(C(F)F)cc4C4CCNC4)C3)c3c(N)ncnn23)C1 (stereo partly drawn) [Example 405, N-((R)-1-(7-(1-acetyl-2,5-dihydro-1H-pyrrol-3-yl)-4-aminopyrrolo[2,1-f][1,2,4]triazin-5-yl)piperidin-3-yl)-5-(difluoromethyl)-3-(pyrrolidin-3-yl)thiophene-2-carboxamide]"
5,17 nM,"CC(=O)N1CC=C(c2cc(N3CCC[C@@H](NC(=O)c4sc(Cl)cc4OC4CN(CCO)C4)C3)c3c(N)ncnn23)C1 [Example 578, (R)-N-(1-(7-(1-acetyl-2,5-dihydro-1H-pyrrol-3-yl)-4-aminopyrrolo[2,1-f][1,2,4]triazin-5-yl)piperidin-3-yl)-5-chloro-3-((1-(2-hydroxyethyl)azetidin-3-yl)oxy)thiophene-2-carboxamide]"
6,37 nM,"CC(=O)N1CC=C(c2cc(N3CCC[C@@H](NC(=O)c4sc(Cl)cc4OC4CCCN(C)C4)C3)c3c(N)ncnn23)C1 (single isomer, unassigned) [Example 595]"
7,494 nM,CC(=O)N1CC=C(c2cc(N3CCC[C@@H](NC(=O)c4nccn4C)C3)c3c(N)ncnn23)C1 [Example 708]
8,4 nM,"CC(=O)N1CC=C(c2cc(N3CCC[C@@H](NC(=O)c4sc(Cl)cc4OC4CCN(C)CC4)C3)c3c(N)ncnn23)C1 [Example 579, (R)-N-(1-(7-(1-acetyl-2,5-dihydro-1H-pyrrol-3-yl)-4-aminopyrrolo[2,1-f][1,2,4]triazin-5-yl)piperidin-3-yl)-5-chloro-3-((1-methylpiperidin-4-yl)oxy)thiophene-2-carboxamide]"
